Legend:
[1] = biological target: human recombinant t-PA (Homo sapiens, UniProt P00750); experiment: Catalytic activity of t-PA (initial rate method, spectrophotometer); assay type: biochemical
Procedure: All experiments were performed as follows: Fifty (50) μL of human recombinant t-PA was incubated with 50 μL of its substrate: methylsulfonyl-D-phenyl-glycil-arginine-7-amino-4-methylcoumarin acetate. For plasmin, twenty five (25) μL of human recombinant plasmin was incubated with 25 μL of its substrate: H-D-norleucyl-hexahydrotyrosol-lysine-para-nitroanilide diacetate. The kinetics of the catalytic activity of t-PA or plasmin was immediately measured using a spectrophotometer, and then estimated using the initial rate method. Solutions of t-PA or plasmin and their substrates were saturated with air (control), or with nitrous oxide, argon, xenon, or helium at concentrations of 15 vol % to 75 vol %, the remainder being oxygen at 25 vol %, completed with nitrogen when necessary.
For all gas mixtures in FIG. 1, the remainder is 25 vol % oxygen completed with nitrogen if necessary.
(§1) The effects of oxygen on the catalytic activity and thrombolytic properties of t-PA were also evaluated in vitro and in vivo according to the methods described above.

[2] = tested on: t-PA-induced clot lysis; experiment: In vitro t-PA-induced clot lysis of rat blood clots; assay type: biochemical; conditions: for effect on t-PA-induced clot lysis: t-PA 0.008 mg/mL
Procedure: In vitro experiments (FIG. 2) were performed using Male adult Sprague-Dawley rats (500±50 g). The rats were killed by decapitation. A volume of 500 μL of rat blood was transferred in different pre-weighed sterile Eppenforf™ tubes of 1.5 mL volume and incubated at 37° C. for 15 hours.
After clot formation, serum was completely removed, aspired out without disturbing the clot formed, and each tube was again weighed to determine the clot weight (clot weight=weight of tube containing clot−weight of tube alone). Each tube containing clot was properly labeled and filled with 1 mL of a saline solution containing 0.008 mg/mL of t-PA, saturated beforehand with medical air (control), nitrous oxide, xenon, argon or a mixture of nitrous oxide and argon. Some tubes were filled with saline alone saturated with medical air to serve as a negative control. All tubes were then incubated at 37° C. for 1 h 30 min. After incubation, the fluid obtained was removed and tubes were again weighed to observe the difference in weight after clot disruption. Difference obtained in weight taken before and after clot lysis was expressed as a percentage of clot lysis.
as §1

[3] = tested on: middle cerebral artery occlusion using an autologous blood clot; experiment: In vivo thrombolysis/reperfusion after embolic middle cerebral artery occlusion using an autologous blood clot; parameters: species or system rat
Procedure: In vivo experiments (FIG. 3) were performed in Male adult Sprague-Dawley rats (290±40 g). The animals had free access to food and water in an animal room at constant temperature and humidity. Rats monitored for their physiological functions were anesthesized, and subjected to cerebral ischemia by occlusion of the middle cerebral artery using an autologus blood clot obtained from whole blood withdrawn from the rat 24 h prior surgery, allowed to clot at 37° C. for 2 h, and then and stored at 4° C. for 22 h.
Embolic occlusion of the middle cerebral artery was induced using an autologous blood clot. Briefly, a blood clot of 4 cm long was injected with a volume of […] of saline into the middle cerebral artery. Forty-five minutes after occlusion of the middle cerebral artery, the rats were given t-PA intravenously (0.9 mg/kg; 10% bolus, 90% perfusion during 45 minutes) in order to induce thrombolysis. Five minutes before the bolus injection and all along the perfusion period with t-PA, the rats were treated with medical air (controls) or xenon. Then, the catheter was removed, and all the incisions closed. After the experiment, the rats were allowed moving freely in their home cage with free access to food and water.
as §1

[4] = tested on: NMDA-induced neuronal death; experiment: NMDA-induced neuronal death after intracerebral injection, with or without t-PA; assay type: in vivo, rat
Procedure: Experiments were conducted in Male adult Sprague-Dawley rats. The rats were given, under short halothane-oxygen anesthesia of 10 min duration, an intracerebral injection of 50 nmol NMDA, alone or in combination with 3 mg t-PA, in […] saline solution.
One hour later, the rats were treated for a 3 h period in an environmental chamber saturated with nitrous oxide at 50 vol % with the remainder being oxygen at 25 vol % completed with nitrogen.
Forty-eight (48) hours after NMDA injection, rats were killed by decapitation under halothane-oxygen anesthesia. The brain was rapidly removed, frozen in isopentane, placed at −80° C. Coronal brain sections (20 μm) were then cryostat-cut, mounted on gelatinized slides, and stained with thionin. Brain sections colored with thionin were then digitized on a PC computer, and analyzed with an image analyzer (ImageJ® software, Scion corp., USA) by two blinded scientists. Values were averaged; value differences were no more than 10% (mean: 0.5±1%). The lesion areas were delineated by the pallor of histological staining in the necrotic tissue compared with the surrounding healthy tissue. The infarction volume was calculated by integration over the whole brain of the infarcted surfaces, using the sterotaxic atlas for the rat brain of Paxinos and Watson (Academic Press, 1998).

[5] = solutions saturated with gas at 15 vol % to 75 vol %, remainder 25 vol % oxygen completed with nitrogen, vs air control
[6] = gas at 50 vol %, 37° C., 1 h 30 min

Chain of human recombinant t-PA (P00750 36-562): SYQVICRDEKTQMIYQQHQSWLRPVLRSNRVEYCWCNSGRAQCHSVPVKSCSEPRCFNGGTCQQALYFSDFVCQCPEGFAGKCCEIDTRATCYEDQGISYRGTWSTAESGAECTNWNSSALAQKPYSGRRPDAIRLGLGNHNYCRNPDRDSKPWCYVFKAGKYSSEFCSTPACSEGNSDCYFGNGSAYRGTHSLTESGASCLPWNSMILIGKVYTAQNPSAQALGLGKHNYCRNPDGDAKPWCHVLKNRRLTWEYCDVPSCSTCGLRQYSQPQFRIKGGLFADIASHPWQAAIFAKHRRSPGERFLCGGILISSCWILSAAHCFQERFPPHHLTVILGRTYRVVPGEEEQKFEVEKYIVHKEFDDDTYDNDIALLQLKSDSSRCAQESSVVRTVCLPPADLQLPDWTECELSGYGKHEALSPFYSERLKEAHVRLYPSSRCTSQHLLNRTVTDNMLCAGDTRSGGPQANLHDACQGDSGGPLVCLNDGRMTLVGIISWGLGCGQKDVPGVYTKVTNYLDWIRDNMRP

[He] [helium] was tested, and the “effect on the catalytic activity of t-PA” value [1, 5] was “reduced” and the “effect on t-PA-induced clot lysis” value ([2]; gas at 75 vol %, 37° C., 1 h 30 min) was “reduce”.
With [Ar] [argon] the “effect on the catalytic activity of t-PA” value [1, 5] was “reduced” and the “effect on t-PA-induced clot lysis” value ([2]; gas at 30 vol %, 37° C., 1 h 30 min) was “reduce”.
[Xe] [xenon] was tested, and the “effect on the catalytic activity of t-PA” value [1, 5] was “reduced”, the “effect on t-PA-induced clot lysis” value [2, 6] was “reduce” and the “reperfusion rate versus control rats treated with t-PA and medical air” value ([3]; xenon at 75 vol % from 5 min before bolus and during t-PA perfusion (0.9 mg/kg i.v.)) was “lower reperfusion rate”.
In the case of [N-]=[N+]=O [nitrous oxide], the “effect on the catalytic activity of t-PA” value [1, 5] is reported as “reduced”, the “effect on t-PA-induced clot lysis” value [2, 6] is reported as “reduce” and the “reduction of neuronal death induced by co-administration of t-PA and NMDA” value ([4]; nitrous oxide 50 vol % for 3 h, 1 h after 50 nmol NMDA + t-PA intracerebral, infarction volume at 48 h) is reported as 45%. For the same molecule, the “reduction of neuronal death produced by NMDA” value ([4]; nitrous oxide 50 vol % for 3 h, 1 h after 50 nmol NMDA intracerebral, infarction volume at 48 h) was 22% and the “reduction of the proteolytic action of t-PA responsible for the enhancement of neuronal death” value ([4]; nitrous oxide 50 vol %, difference 45%−22%) was “approximately 23%”.
With O=O [Oxygen, oxygen] the “effect on the catalytic activity of t-PA” value ([1]; oxygen at 100 vol %) was “increases”, the “effect on in vitro thrombolytic action of t-PA” value ([2]; oxygen at 100 vol %) was “facilitates” and the “effect on in vivo thrombolytic action of t-PA” value ([3]; oxygen at 100 vol %) was “facilitates”.
In the case of “t-PA: human recombinant tissue-type plasminogen activator, a thrombolytic serine protease”, the “percentage of clot lysis” value ([2]; t-PA 0.008 mg/mL in saline saturated with medical air (control), 37° C., 1 h 30 min) is reported as “around 23%”, the reperfusion ([3]; t-PA 0.9 mg/kg intravenously 45 min after occlusion, vs rats not treated with t-PA) is reported as “exhibit reperfusion” and the “effect on NMDA-induced neuronal death” value ([4]; t-PA co-administered with 50 nmol NMDA intracerebrally) is reported as “increases”.

Source: patent US8435569B2, “Pharmaceutical composition comprising at least one thrombolytic agent (A) and at least one gas (B) selected from the group consisting of nitrous oxide, argon, xenon, helium, neon” (NNOXE Pharmaceutiques Inc., priority 2007, dated 2013)
